Laboratory results published in ChEMBL document CHEMBL5678816, “A Next-Generation TRK Kinase Inhibitor Overcomes Acquired Resistance to Prior TRK Kinase Inhibition in Patients with TRK Fusion-Positive Solid Tumors” (Cancer Discov, 2017).
The source made the active and inactive calls. The rule behind the calls is not given here.

Tests used:
[1] = biological target: cAMP-dependent protein kinase catalytic subunit PRKX (Homo sapiens) (UniProt P51817); assay: Inhibition of PrKX (unknown origin) at 1 uM in presence of ATP relative to control; values are per cent of control
[2] = biological target: NUAK family SNF1-like kinase 1 (Homo sapiens) (UniProt O60285); assay: Inhibition of ARK5 (unknown origin) at 1 uM in presence of ATP relative to control; values are per cent of control
[3] = biological target: Ribosomal protein S6 kinase alpha-3 (Homo sapiens) (UniProt P51812); assay: Inhibition of Rsk2 (unknown origin) at 1 uM in presence of ATP relative to control; values are per cent of control
KPL-1 = assay: Inhibition of cell proliferation in human KPL-1 cells upto 10 umol/L incubated for 72 hrs by DAPI staining based analysis; type: functional; conditions: dose <= 10.0 µmol/L
[4] = biological target: Focal adhesion kinase 1 (Homo sapiens) (UniProt Q05397); assay: Inhibition of FAK (unknown origin) at 1 uM in presence of ATP relative to control; values are per cent of control
BT-20 = assay: Inhibition of cell proliferation in human BT-20 cells upto 10 umol/L incubated for 72 hrs by DAPI staining based analysis; type: functional; conditions: dose <= 10.0 µmol/L
TAK1/TAB1 (Homo sapiens) = TAK1/TAB1 (Homo sapiens) (UniProt Q15750+O43318); assay: Inhibition of TAK1-TAB1 (unknown origin) at 1 uM in presence of ATP relative to control; values are per cent of control
[5] = biological target: Serine/threonine-protein kinase Nek2 (Homo sapiens) (UniProt P51955); assay: Inhibition of NEK2 (unknown origin) at 1 uM in presence of ATP relative to control; values are per cent of control
[6] = biological target: G protein-coupled receptor kinase 6 (Homo sapiens) (UniProt P43250); assay: Inhibition of GRK6 (unknown origin) at 1 uM in presence of ATP relative to control; values are per cent of control
CAL-27 = assay: Inhibition of cell proliferation in human CAL-27 cells upto 10 umol/L incubated for 72 hrs by DAPI staining based analysis; type: functional; conditions: dose <= 10.0 µmol/L
SNB-19 = assay: Inhibition of cell proliferation in human SNB-19 cells upto 10 umol/L incubated for 72 hrs by DAPI staining based analysis; type: functional; conditions: dose <= 10.0 µmol/L
NIH3T3 [7] = assay: In vivo inhibition of […] in nu/nu NCr mouse implanted with mouse NIH3T3 cells harboring extracellular domain deleted […] G595R mutant assessed as reduction in […] phosphorylation administered orally twice daily for 3 days and measured after 2 hrs post last dose by ELISA; type: functional; conditions: dose 10-100 mg/kg, route po, time 3.0 day
[8] = Cmin in pediatric patient with recurrent ETV6-NTRK3-rearranged infantile fibrosarcoma at 20 mg administered twice a day as liquid formulation for 1 day and measured 12 hrs post dose by LC-MS/MS analysis; type: ADME; conditions: human, in vivo, read-out: Cmin
[9] = biological target: RAC-gamma serine/threonine-protein kinase (Homo sapiens) (UniProt Q9Y243); assay: Inhibition of AKT3 (unknown origin) at 1 uM in presence of ATP relative to control; values are per cent of control
DMS-53 = assay: Inhibition of cell proliferation in human DMS-53 cells upto 10 umol/L incubated for 72 hrs by DAPI staining based analysis; type: functional; conditions: dose <= 10.0 µmol/L
[10] = Cmin in adult patient with recurrent LMNA-NTRK1 rearranged colorectal cancer at 100 mg administered twice a day as powder-in-capsule or liquid formulation for 22 day and measured 10 hrs post dose by LC-MS/MS analysis; type: ADME; conditions: human, in vivo, po, read-out: Cmin
[11] = biological target: Serine/threonine-protein kinase tousled-like 2 (Homo sapiens) (UniProt Q86UE8); assay: Inhibition of TLK2 (unknown origin) at 1 uM in presence of ATP relative to control; values are per cent of control
[12] = biological target: Homeodomain-interacting protein kinase 1 (Homo sapiens) (UniProt Q86Z02); assay: Inhibition of HIPK1 (unknown origin) at 1 uM in presence of ATP relative to control; values are per cent of control
[13] = biological target: Protein kinase C epsilon type (Homo sapiens) (UniProt Q02156); assay: Inhibition of PKCepsilon (unknown origin) at 1 uM in presence of ATP relative to control; values are per cent of control
[14] = biological target: Proto-oncogene tyrosine-protein kinase Src (Homo sapiens) (UniProt P12931); assay: Inhibition of SrC (unknown origin) at 1 uM in presence of ATP relative to control; values are per cent of control
[15] = Cmax in pediatric patient with recurrent ETV6-NTRK3-rearranged infantile fibrosarcoma at 60 mg administered twice a day as liquid formulation for 8 day by LC-MS/MS analysis; type: ADME; conditions: human, in vivo
[16] = biological target: Death-associated protein kinase 2 (Homo sapiens) (UniProt Q9UIK4); assay: Inhibition of DAPK2 (unknown origin) at 1 uM in presence of ATP relative to control; values are per cent of control
[17] = biological target: Serine/threonine-protein kinase PAK 6 (Homo sapiens) (UniProt Q9NQU5); assay: Inhibition of PAK6 (unknown origin) at 1 uM in presence of ATP relative to control; values are per cent of control
NIH3T3 [18] = type: functional, organism-based; conditions: Mus musculus, dose 30-300 mg/kg, route po, time 9.0 day
[19] = biological target: Serine/threonine-protein kinase PAK 5 (Homo sapiens) (UniProt Q9P286); assay: Inhibition of PAK5 (unknown origin) at 1 uM in presence of ATP relative to control; values are per cent of control
K562 = assay: Inhibition of cell proliferation in human K562 cells upto 10 umol/L incubated for 72 hrs by DAPI staining based analysis; type: functional; conditions: dose <= 10.0 µmol/L
KM12 = assay: Antitumor activity against human KM12 cells harboring TPM3-TRKA fusion protein xenografted in nu/nu NCr mouse assessed as inhibition of tumor growth at 30 to 300 mg/kg, po administered twice daily for 11 days; type: functional, organism-based; conditions: dose 30-300 mg/kg, time 11.0 day
[20] = biological target: Serine/threonine-protein kinase Nek7 (Homo sapiens) (UniProt Q8TDX7); assay: Inhibition of NEK7 (unknown origin) at 1 uM in presence of ATP relative to control; values are per cent of control
[21] = biological target: Serine/threonine-protein kinase pim-1 (Homo sapiens) (UniProt P11309); assay: Inhibition of Pim-1 (unknown origin) at 1 uM in presence of ATP relative to control; values are per cent of control

Sequence of RAC-gamma serine/threonine-protein kinase (Homo sapiens) (Q9Y243 whole entry): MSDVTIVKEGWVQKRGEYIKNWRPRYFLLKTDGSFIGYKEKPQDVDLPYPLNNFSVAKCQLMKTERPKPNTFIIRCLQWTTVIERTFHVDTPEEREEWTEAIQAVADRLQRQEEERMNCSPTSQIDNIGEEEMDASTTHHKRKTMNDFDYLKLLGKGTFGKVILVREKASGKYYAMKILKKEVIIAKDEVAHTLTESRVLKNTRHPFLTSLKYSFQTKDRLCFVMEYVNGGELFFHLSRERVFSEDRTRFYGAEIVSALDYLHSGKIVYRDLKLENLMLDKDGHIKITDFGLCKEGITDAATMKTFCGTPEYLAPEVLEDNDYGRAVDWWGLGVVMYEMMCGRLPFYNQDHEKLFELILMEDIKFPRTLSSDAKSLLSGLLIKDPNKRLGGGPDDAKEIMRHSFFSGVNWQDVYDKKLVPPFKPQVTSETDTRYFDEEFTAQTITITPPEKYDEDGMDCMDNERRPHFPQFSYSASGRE
Sequence of Serine/threonine-protein kinase PAK 5 (Homo sapiens) (Q9P286 whole entry, looked up): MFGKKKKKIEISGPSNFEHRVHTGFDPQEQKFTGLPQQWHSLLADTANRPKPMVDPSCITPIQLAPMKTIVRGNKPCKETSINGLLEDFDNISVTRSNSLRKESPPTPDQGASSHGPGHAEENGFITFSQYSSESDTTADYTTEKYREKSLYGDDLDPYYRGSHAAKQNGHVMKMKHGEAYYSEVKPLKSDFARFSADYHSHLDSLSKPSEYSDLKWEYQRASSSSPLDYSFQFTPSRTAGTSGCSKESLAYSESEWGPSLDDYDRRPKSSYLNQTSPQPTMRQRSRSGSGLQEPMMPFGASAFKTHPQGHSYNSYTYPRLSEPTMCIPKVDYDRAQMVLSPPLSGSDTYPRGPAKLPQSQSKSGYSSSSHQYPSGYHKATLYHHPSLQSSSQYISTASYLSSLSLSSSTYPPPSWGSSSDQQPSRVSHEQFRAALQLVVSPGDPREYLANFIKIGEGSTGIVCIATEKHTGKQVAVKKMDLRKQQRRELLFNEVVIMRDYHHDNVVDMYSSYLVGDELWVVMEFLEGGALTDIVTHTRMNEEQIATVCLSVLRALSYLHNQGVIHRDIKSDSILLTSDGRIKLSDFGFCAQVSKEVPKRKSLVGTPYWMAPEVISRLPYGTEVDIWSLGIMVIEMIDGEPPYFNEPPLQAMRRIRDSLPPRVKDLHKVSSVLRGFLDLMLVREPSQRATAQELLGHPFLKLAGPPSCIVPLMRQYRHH
Sequence of cAMP-dependent protein kinase catalytic subunit PRKX (Homo sapiens) (P51817 whole entry): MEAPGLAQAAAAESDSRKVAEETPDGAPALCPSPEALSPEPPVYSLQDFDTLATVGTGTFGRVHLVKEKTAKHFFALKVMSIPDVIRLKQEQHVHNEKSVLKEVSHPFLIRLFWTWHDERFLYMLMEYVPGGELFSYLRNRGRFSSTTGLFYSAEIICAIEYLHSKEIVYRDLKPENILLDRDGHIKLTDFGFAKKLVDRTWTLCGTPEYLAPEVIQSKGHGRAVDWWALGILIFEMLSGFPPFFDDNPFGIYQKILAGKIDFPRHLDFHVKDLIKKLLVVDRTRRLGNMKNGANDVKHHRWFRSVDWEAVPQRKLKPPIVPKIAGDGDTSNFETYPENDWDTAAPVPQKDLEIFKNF
Sequence of NUAK family SNF1-like kinase 1 (Homo sapiens) (O60285 whole entry): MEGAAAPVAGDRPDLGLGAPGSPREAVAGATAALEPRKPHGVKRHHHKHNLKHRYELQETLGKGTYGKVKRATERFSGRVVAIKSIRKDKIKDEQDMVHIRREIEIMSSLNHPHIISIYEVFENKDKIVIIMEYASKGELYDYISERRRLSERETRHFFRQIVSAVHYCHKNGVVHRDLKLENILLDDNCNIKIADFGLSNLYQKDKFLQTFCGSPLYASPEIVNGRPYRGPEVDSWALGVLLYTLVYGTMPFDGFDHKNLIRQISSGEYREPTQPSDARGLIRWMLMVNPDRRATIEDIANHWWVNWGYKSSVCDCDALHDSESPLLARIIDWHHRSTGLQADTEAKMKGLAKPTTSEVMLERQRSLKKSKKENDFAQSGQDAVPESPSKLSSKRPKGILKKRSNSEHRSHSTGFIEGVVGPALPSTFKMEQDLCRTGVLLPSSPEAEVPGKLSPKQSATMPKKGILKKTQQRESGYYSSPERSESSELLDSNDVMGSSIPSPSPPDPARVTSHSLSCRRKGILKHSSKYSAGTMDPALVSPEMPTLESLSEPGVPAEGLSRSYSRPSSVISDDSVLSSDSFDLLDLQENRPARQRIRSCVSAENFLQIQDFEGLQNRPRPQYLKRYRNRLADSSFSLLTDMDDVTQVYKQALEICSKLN
Sequence of Serine/threonine-protein kinase PAK 6 (Homo sapiens) (Q9NQU5 whole entry, looked up): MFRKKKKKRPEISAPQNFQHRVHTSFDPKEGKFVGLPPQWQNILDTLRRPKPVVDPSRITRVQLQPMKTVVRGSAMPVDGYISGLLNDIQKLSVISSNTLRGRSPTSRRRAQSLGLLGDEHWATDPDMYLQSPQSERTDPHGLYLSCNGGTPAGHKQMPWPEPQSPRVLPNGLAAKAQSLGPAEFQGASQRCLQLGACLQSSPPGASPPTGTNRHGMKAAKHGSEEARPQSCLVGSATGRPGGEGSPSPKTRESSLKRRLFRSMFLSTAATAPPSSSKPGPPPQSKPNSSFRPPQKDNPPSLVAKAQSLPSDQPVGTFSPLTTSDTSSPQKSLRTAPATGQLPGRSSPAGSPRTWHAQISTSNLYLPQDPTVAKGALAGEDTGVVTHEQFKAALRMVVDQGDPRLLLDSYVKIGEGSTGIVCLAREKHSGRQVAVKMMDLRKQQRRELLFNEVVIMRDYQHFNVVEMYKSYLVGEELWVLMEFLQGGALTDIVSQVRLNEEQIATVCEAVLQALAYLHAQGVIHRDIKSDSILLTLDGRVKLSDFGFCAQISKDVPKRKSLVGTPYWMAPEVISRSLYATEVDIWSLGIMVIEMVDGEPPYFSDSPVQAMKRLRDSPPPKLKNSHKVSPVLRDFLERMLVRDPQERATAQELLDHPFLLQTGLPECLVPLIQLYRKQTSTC
Sequence of G protein-coupled receptor kinase 6 (Homo sapiens) (P43250 whole entry, looked up): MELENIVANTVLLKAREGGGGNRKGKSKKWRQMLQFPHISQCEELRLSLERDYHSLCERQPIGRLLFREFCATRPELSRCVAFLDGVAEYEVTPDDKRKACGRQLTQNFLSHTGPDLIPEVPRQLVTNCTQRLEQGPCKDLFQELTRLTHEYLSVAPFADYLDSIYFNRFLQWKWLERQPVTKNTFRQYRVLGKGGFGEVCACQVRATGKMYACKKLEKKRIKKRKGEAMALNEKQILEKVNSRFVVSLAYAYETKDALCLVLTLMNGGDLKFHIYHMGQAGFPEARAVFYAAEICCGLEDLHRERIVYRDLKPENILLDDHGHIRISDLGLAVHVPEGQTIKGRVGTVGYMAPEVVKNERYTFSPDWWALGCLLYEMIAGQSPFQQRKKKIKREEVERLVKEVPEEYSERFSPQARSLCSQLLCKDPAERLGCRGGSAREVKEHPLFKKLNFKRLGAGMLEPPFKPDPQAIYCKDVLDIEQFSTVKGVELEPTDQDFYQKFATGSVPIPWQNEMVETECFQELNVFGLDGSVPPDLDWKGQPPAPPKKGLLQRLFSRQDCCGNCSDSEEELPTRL
Sequence of Homeodomain-interacting protein kinase 1 (Homo sapiens) (Q86Z02 whole entry, looked up): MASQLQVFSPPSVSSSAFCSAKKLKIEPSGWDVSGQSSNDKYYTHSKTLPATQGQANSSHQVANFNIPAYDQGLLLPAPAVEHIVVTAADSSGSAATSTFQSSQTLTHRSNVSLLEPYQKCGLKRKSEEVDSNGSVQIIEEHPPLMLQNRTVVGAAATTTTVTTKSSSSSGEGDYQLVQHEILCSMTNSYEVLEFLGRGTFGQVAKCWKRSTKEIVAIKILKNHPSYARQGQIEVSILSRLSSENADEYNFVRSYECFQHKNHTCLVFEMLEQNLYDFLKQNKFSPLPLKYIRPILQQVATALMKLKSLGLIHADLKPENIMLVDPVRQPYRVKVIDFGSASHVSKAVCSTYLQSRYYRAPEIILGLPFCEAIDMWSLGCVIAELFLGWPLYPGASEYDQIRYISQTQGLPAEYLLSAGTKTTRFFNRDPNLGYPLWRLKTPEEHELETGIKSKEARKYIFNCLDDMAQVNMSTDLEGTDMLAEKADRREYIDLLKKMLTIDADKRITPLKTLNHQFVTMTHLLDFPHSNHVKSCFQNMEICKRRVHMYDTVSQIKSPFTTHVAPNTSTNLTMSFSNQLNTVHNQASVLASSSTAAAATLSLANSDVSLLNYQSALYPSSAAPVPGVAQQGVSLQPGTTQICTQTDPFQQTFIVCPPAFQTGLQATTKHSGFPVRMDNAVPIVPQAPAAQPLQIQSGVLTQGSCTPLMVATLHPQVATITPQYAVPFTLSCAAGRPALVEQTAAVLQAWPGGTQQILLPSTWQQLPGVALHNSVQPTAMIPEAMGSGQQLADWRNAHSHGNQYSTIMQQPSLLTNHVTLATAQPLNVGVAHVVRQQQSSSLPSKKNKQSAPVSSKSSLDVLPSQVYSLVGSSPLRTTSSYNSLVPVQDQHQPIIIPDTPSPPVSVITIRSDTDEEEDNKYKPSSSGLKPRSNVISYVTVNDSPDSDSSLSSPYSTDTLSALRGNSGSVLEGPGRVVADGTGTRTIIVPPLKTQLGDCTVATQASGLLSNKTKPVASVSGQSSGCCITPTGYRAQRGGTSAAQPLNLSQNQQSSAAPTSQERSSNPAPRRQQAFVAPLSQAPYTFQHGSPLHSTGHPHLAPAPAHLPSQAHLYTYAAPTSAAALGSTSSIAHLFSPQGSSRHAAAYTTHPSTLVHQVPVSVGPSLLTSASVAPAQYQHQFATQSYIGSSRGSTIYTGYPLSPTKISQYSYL
Sequence of Serine/threonine-protein kinase Nek7 (Homo sapiens) (Q8TDX7 whole entry, looked up): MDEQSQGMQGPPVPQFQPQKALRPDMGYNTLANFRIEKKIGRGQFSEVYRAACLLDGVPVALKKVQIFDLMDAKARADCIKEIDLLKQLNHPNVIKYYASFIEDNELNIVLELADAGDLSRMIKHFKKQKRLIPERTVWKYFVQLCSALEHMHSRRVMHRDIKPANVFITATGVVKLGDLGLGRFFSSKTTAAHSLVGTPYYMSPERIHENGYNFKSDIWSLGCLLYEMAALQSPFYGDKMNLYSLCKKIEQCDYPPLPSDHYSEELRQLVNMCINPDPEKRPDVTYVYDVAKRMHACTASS

Compound: C[C@@H]1CCc2ncc(F)cc2[C@H]2CCCN2c2ccn3ncc(c3n2)C(=O)N1 [SELITRECTINIB]
- residual activity [1]: 118%
- residual activity [2]: 98%
- residual activity [3]: 134%
- inhibition (KPL-1): inactive
- residual activity [4]: 81%
- inhibition (BT-20): inactive
- residual activity (TAK1/TAB1 (Homo sapiens)): 100%
- residual activity [5]: 117%
- residual activity [6]: 106%
- inhibition (CAL-27): inactive
- inhibition (SNB-19): inactive
- inhibition (NIH3T3 [7]): Dose-Dependent Effect
- concentration at 36 h [8]: < 1 ng/mL
- residual activity [9]: 104%
- inhibition (DMS-53): inactive
- concentration at 538 h [10]: 14.7 ng/mL
- residual activity [11]: 108%
- residual activity [12]: 106%
- residual activity [13]: 102%
- residual activity [14]: 102%
- Cmax [15]: 415 ng/mL
- residual activity [16]: 94%
- residual activity [17]: 99%
- Activity (NIH3T3 [18]): Active
- residual activity [19]: 104%
- inhibition (K562): inactive
- Activity (KM12): Active
- residual activity [20]: 103%
- residual activity [21]: 122%
